Measured values from ChEMBL document CHEMBL3885881, “DrugMatrix”.

Species: Rattus norvegicus
Experiment: DrugMatrix - Regimen: Daily Repeat
Assay type: toxicity, organism-based, Sprague-Dawley
Parameters: regimen Daily Repeat, gender Male, age 6-8 weeks
Settings: in vivo, po, route oral GAVAGE, […]; for ABSOLUTE BASOPHIL / ABSOLUTE EOSINOPHIL / ABSOLUTE LYMPHOCYTE / ABSOLUTE MONOCYTE / ABSOLUTE SEGMENTED NEUTROPHIL / BASOPHIL / EOSINOPHIL / ERYTHROCYTE COUNT / HEMATOCRIT / HEMOGLOBIN / LEUKOCYTE COUNT / LYMPHOCYTE / MEAN CORPUSCULAR HEMOGLOBIN / MEAN CORPUSCULAR HEMOGLOBIN CONCENTRATION / MEAN CORPUSCULAR VOLUME / MONOCYTE / NEUTROPHIL / NUCLEATED RED BLOOD CELLS / PLATELET COUNT: tissue Blood; for ALANINE AMINOTRANSFERASE / ALBUMIN / ALKALINE PHOSPHATASE / ASPARTATE AMINOTRANSFERASE / BLOOD UREA NITROGEN / CARBON DIOXIDE / CHLORIDE / CHOLESTEROL / CREATINE PHOSPHOKINASE / CREATININE / GLUCOSE / LACTATE DEHYDROGENASE / LIPASE / PHOSPHORUS / POTASSIUM / SODIUM / TOTAL BILIRUBIN / TOTAL PROTEIN / URIC ACID: tissue Plasma
[1] = 75 mg/kg, 72 h, dose level High, time 3 day
[2] = 75 mg/kg, 120 h, dose level High, time 5 day
[3] = 72 h, dose 7.5 mg/Kg, dose level Low, time 3 day
[4] = 120 h, dose 7.5 mg/Kg, dose level Low, time 5 day

SMILES: C[C@@H]1CC[C@@]2(OC1)O[C@H]1[C@@H](O)[C@H]3[C@@H]4CC[C@H]5C[C@@H](O[C@@H]6O[C@H](CO)[C@H](O[C@@H]7O[C@H](CO)C(O)[C@H](O[C@@H]8OC[C@@H](O)[C@H](O)[C@H]8O)[C@H]7O[C@@H]7O[C@H](CO)[C@H](O)[C@H](O[C@@H]8O[C@H](CO)[C@@H](O)[C@H](O)[C@H]8O)[C@H]7O)[C@H](O)[C@H]6O)[C@H](O)C[C@]5(C)[C@H]4CC[C@]3(C)[C@H]1[C@@H]2C (some centres not stated) [DIGITONIN]
- ABSOLUTE BASOPHIL [1]: 0 CELLS/uL
- ABSOLUTE EOSINOPHIL [1]: 39.67 CELLS/uL
- ABSOLUTE LYMPHOCYTE [1]: 12631.67 CELLS/uL
- ABSOLUTE MONOCYTE [1]: 0 CELLS/uL
- ABSOLUTE SEGMENTED NEUTROPHIL [1]: 1028.67 CELLS/uL
- BASOPHIL [1]: 0%
- EOSINOPHIL [1]: 0.33%
- ERYTHROCYTE COUNT [1]: 5.46 x10E6/uL
- HEMATOCRIT [1]: 34.9%
- HEMOGLOBIN [1]: 13.03 G/DL
- LEUKOCYTE COUNT [1]: 13.7 x10E3/uL
- LYMPHOCYTE [1]: 92.33%
- MEAN CORPUSCULAR HEMOGLOBIN [1]: 23.83 pg
- MEAN CORPUSCULAR HEMOGLOBIN CONCENTRATION [1]: 37.37 G/DL
- MEAN CORPUSCULAR VOLUME [1]: 63.8 fL
- MONOCYTE [1]: 0%
- NEUTROPHIL [1]: 7.33%
- NUCLEATED RED BLOOD CELLS [1]: 0 /100WBC
- PLATELET COUNT [1]: 1082.67 x10E3/uL
- ALANINE AMINOTRANSFERASE [1]: 64 u/L
- ALBUMIN [1]: 4.23 G/DL
- ALKALINE PHOSPHATASE [1]: 395.33 u/L
- ASPARTATE AMINOTRANSFERASE [1]: 86.33 u/L
- BLOOD UREA NITROGEN [1]: 16.67 mg/dL
- CARBON DIOXIDE [1]: 25.33 mmol/L
- CHLORIDE [1]: 102 MEQ/L
- CHOLESTEROL [1]: 78 mg/dL
- CREATINE PHOSPHOKINASE [1]: 233.67 u/L
- CREATININE [1]: 0.17 mg/dL
- GLUCOSE [1]: 178.33 mg/dL
- LACTATE DEHYDROGENASE [1]: 118.33 u/L
- LIPASE [1]: 9 u/L
- PHOSPHORUS [1]: 13.13 mg/dL
- POTASSIUM [1]: 6.32 MEQ/L
- SODIUM [1]: 144.17 MEQ/L
- TOTAL BILIRUBIN [1]: 0.23 mg/dL
- TOTAL PROTEIN [1]: 5.93 G/DL
- URIC ACID [1]: 2.1 mg/dL
- ABSOLUTE BASOPHIL [2]: 0 CELLS/uL
- ABSOLUTE EOSINOPHIL [2]: 43.33 CELLS/uL
- ABSOLUTE LYMPHOCYTE [2]: 6877 CELLS/uL
- ABSOLUTE MONOCYTE [2]: 37 CELLS/uL
- ABSOLUTE SEGMENTED NEUTROPHIL [2]: 776 CELLS/uL
- BASOPHIL [2]: 0%
- EOSINOPHIL [2]: 0.67%
- ERYTHROCYTE COUNT [2]: 5.49 x10E6/uL
- HEMATOCRIT [2]: 35.43%
- HEMOGLOBIN [2]: 13.27 G/DL
- LEUKOCYTE COUNT [2]: 7.73 x10E3/uL
- LYMPHOCYTE [2]: 89.33%
- MEAN CORPUSCULAR HEMOGLOBIN [2]: 24.17 pg
- MEAN CORPUSCULAR HEMOGLOBIN CONCENTRATION [2]: 37.47 G/DL
- MEAN CORPUSCULAR VOLUME [2]: 64.5 fL
- MONOCYTE [2]: 0.33%
- NEUTROPHIL [2]: 9.67%
- NUCLEATED RED BLOOD CELLS [2]: 0 /100WBC
- PLATELET COUNT [2]: 1285 x10E3/uL
- ALANINE AMINOTRANSFERASE [2]: 65.67 u/L
- ALBUMIN [2]: 4.4 G/DL
- ALKALINE PHOSPHATASE [2]: 444.33 u/L
- ASPARTATE AMINOTRANSFERASE [2]: 85.67 u/L
- BLOOD UREA NITROGEN [2]: 15.67 mg/dL
- CARBON DIOXIDE [2]: 24 mmol/L
- CHLORIDE [2]: 100 MEQ/L
- CHOLESTEROL [2]: 62 mg/dL
- CREATINE PHOSPHOKINASE [2]: 202.67 u/L
- CREATININE [2]: 0.15 mg/dL
- GLUCOSE [2]: 146.67 mg/dL
- LACTATE DEHYDROGENASE [2]: 137.67 u/L
- LIPASE [2]: 8.33 u/L
- PHOSPHORUS [2]: 10.97 mg/dL
- POTASSIUM [2]: 5.88 MEQ/L
- SODIUM [2]: 147.6 MEQ/L
- TOTAL BILIRUBIN [2]: 0.23 mg/dL
- TOTAL PROTEIN [2]: 6 G/DL
- URIC ACID [2]: 0.83 mg/dL
- ABSOLUTE BASOPHIL [3]: 0 CELLS/uL
- ABSOLUTE EOSINOPHIL [3]: 77.33 CELLS/uL
- ABSOLUTE LYMPHOCYTE [3]: 10391.33 CELLS/uL
- ABSOLUTE MONOCYTE [3]: 34.33 CELLS/uL
- ABSOLUTE SEGMENTED NEUTROPHIL [3]: 1397 CELLS/uL
- BASOPHIL [3]: 0%
- EOSINOPHIL [3]: 0.67%
- ERYTHROCYTE COUNT [3]: 5.69 x10E6/uL
- HEMATOCRIT [3]: 35.5%
- HEMOGLOBIN [3]: 13.27 G/DL
- LEUKOCYTE COUNT [3]: 11.9 x10E3/uL
- LYMPHOCYTE [3]: 87.33%
- MEAN CORPUSCULAR HEMOGLOBIN [3]: 23.33 pg
- MEAN CORPUSCULAR HEMOGLOBIN CONCENTRATION [3]: 37.4 G/DL
- MEAN CORPUSCULAR VOLUME [3]: 62.47 fL
- MONOCYTE [3]: 0.33%
- NEUTROPHIL [3]: 11.67%
- NUCLEATED RED BLOOD CELLS [3]: 0 /100WBC
- PLATELET COUNT [3]: 1266.67 x10E3/uL
- ALANINE AMINOTRANSFERASE [3]: 59.33 u/L
- ALBUMIN [3]: 4.13 G/DL
- ALKALINE PHOSPHATASE [3]: 424 u/L
- ASPARTATE AMINOTRANSFERASE [3]: 79 u/L
- BLOOD UREA NITROGEN [3]: 14 mg/dL
- CARBON DIOXIDE [3]: 25.67 mmol/L
- CHLORIDE [3]: 100.67 MEQ/L
- CHOLESTEROL [3]: 70.67 mg/dL
- CREATINE PHOSPHOKINASE [3]: 187 u/L
- CREATININE [3]: 0.18 mg/dL
- GLUCOSE [3]: 156.33 mg/dL
- LACTATE DEHYDROGENASE [3]: 100.33 u/L
- LIPASE [3]: 8.67 u/L
- PHOSPHORUS [3]: 12.73 mg/dL
- POTASSIUM [3]: 6.51 MEQ/L
- SODIUM [3]: 145.03 MEQ/L
- TOTAL BILIRUBIN [3]: 0.23 mg/dL
- TOTAL PROTEIN [3]: 5.73 G/DL
- URIC ACID [3]: 2.23 mg/dL
- ABSOLUTE BASOPHIL [4]: 0 CELLS/uL
- ABSOLUTE EOSINOPHIL [4]: 102 CELLS/uL
- ABSOLUTE LYMPHOCYTE [4]: 14620 CELLS/uL
- ABSOLUTE MONOCYTE [4]: 219 CELLS/uL
- ABSOLUTE SEGMENTED NEUTROPHIL [4]: 1792.33 CELLS/uL
- BASOPHIL [4]: 0%
- EOSINOPHIL [4]: 0.67%
- ERYTHROCYTE COUNT [4]: 5.47 x10E6/uL
- HEMATOCRIT [4]: 35.23%
- HEMOGLOBIN [4]: 13.57 G/DL
- LEUKOCYTE COUNT [4]: 16.73 x10E3/uL
- LYMPHOCYTE [4]: 87.33%
- MEAN CORPUSCULAR HEMOGLOBIN [4]: 24.83 pg
- MEAN CORPUSCULAR HEMOGLOBIN CONCENTRATION [4]: 38.5 G/DL
- MEAN CORPUSCULAR VOLUME [4]: 64.37 fL
- MONOCYTE [4]: 1.33%
- NEUTROPHIL [4]: 10.67%
- NUCLEATED RED BLOOD CELLS [4]: 0 /100WBC
- PLATELET COUNT [4]: 1216 x10E3/uL
- ALANINE AMINOTRANSFERASE [4]: 57.33 u/L
- ALBUMIN [4]: 4.3 G/DL
- ALKALINE PHOSPHATASE [4]: 437 u/L
- ASPARTATE AMINOTRANSFERASE [4]: 80.33 u/L
- BLOOD UREA NITROGEN [4]: 14.67 mg/dL
- CARBON DIOXIDE [4]: 28.67 mmol/L
- CHLORIDE [4]: 100.67 MEQ/L
- CHOLESTEROL [4]: 53.67 mg/dL
- CREATINE PHOSPHOKINASE [4]: 222.67 u/L
- CREATININE [4]: 0.22 mg/dL
- GLUCOSE [4]: 160.33 mg/dL
- LACTATE DEHYDROGENASE [4]: 207.67 u/L
- LIPASE [4]: 8 u/L
- PHOSPHORUS [4]: 11.63 mg/dL
- POTASSIUM [4]: 6.09 MEQ/L
- SODIUM [4]: 144.37 MEQ/L
- TOTAL BILIRUBIN [4]: 0.2 mg/dL
- TOTAL PROTEIN [4]: 6.03 G/DL
- URIC ACID [4]: 1.47 mg/dL
